Data as given in patent US20100204246A1, “5-AMINOPYRAZOL-3-YL-3H-IMIDAZO (4,5-B) PYRIDINE DERIVATIVES AND THEIR USE FOR THE TREATMENT OF CANCER” (AstraZeneca AB, priority 2007, published 2010).

Assays:
human Trk A kinase = target: T1, human Trk A kinase (Homo sapiens, UniProt P04629); assay: Trk A kinase assay (Alphascreen, phosphorylation of PolyEY-biotin substrate); format: biochemical; conditions: 0.838 ng/ml Trk A, 70 μM ATP, 20 minutes, room temperature; read-out: IC50 (Trk inhibitory activity)
T1 construct: HIS; made in house; host or cells: SF9 cells
T1 sequence (P04629 442-796): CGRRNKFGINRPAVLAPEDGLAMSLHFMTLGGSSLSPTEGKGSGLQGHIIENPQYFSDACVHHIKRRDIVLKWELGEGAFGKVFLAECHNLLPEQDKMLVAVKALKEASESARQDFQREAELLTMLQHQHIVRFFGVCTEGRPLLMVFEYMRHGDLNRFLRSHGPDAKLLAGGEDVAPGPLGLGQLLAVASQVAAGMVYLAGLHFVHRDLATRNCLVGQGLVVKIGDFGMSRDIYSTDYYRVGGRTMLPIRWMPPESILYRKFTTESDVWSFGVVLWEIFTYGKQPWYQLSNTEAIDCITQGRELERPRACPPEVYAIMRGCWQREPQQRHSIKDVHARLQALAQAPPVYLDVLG
Experimental: Trk A kinase activity was determined by measuring the kinase's ability to phosphorylate synthetic tyrosine residues within a generic polypeptide substrate using an Amplified Luminescent Proximity Assay (Alphascreen) technology (PerkinElmer, 549 Albany Street, Boston, Mass.).
To measure Trk A kinase activity, the intracellular domain of a HIS-tagged human Trk A kinase (amino acids 442-796 of Trk A, Swiss-Prot Primary Accession Number P04629) may be expressed in SF9 cells and purified using standard nickel column chromatography. After incubation of the kinase with a biotinylated substrate and adenosine triphosphate (ATP) for 20 minutes at room temperature, the kinase reaction may be stopped by the addition of 30 mM ethylenediaminetetraacetic acid (EDTA). The reaction may be performed in 384 well microtitre plates and the reaction products may be detected with the addition of strepavidin coated Donor Beads and phosphotyrosine-specific antibodies coated Acceptor Beads using the EnVision Multilabel Plate Reader after an overnight incubation at room temperature.

human JAK2 = target: T2, human JAK2 (Homo sapiens, UniProt O60674); assay: JAK2 kinase assay (Alphascreen, phosphorylation of biotinylated peptide substrate); format: biochemical; conditions: 150pM JAK2 enzyme, 30 μM ATP, 60 minutes, room temperature; read-out: IC50 (JAK inhibitory activity)
T2 construct: human JAK2, amino acids 808-end; His6 (C); purchased Upstate Biotechnology; host or cells: baculovirus in Sf21 cells
T2 sequence (O60674 808-1132 limits assumed): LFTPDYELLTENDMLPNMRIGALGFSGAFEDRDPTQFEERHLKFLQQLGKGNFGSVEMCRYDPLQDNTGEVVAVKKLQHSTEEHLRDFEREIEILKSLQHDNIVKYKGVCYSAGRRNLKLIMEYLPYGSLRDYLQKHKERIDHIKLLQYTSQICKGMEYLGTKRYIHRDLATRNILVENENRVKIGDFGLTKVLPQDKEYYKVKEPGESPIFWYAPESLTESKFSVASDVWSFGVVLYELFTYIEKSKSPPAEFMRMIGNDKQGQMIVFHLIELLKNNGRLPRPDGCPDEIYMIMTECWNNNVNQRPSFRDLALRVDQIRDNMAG
Experimental: JAK2 kinase activity was determined by measuring the kinase's ability to phosphorylate synthetic tyrosine residues within a generic polypeptide substrate using an Amplified Luminescent Proximity Assay (Alphascreen) technology (PerkinElmer, 549 Albany Street, Boston, Mass.).
To measure JAK2 kinase activity, a commercially available purified enzyme may be used. The enzyme may be a C-terminal His6-tagged, recombinant, human JAK2, amino acids 808-end, (Genbank Accession number NM 004972) expressed by baculovirus in Sf21 cells (Upstate Biotechnology MA). After incubation of the kinase with a biotinylated substrate and adenosine triphosphate (ATP) for 60 minutes at room temperature, the kinase reaction may be stopped by the addition of 30 mM ethylenediaminetetraacetic acid (EDTA). The reaction may be performed in 384 well microtitre plates and the reaction products may be detected with the addition of streptavidin coated Donor Beads and phosphotyrosine-specific antibodies coated Acceptor Beads using the EnVision Multilabel Plate Reader after an overnight incubation at room temperature.

IC50 (human Trk A kinase) | IC50 (human JAK2) | SMILES
3 nM | 11 nM | CCOc1cc(Nc2nc3c(cc2F)ncn3[C@@H](C)c2ccc(F)cn2)n[nH]1 [Example 3, N-(5-Ethoxy-1H-pyrazol-3-yl)-6-fluoro-3-[(1S)-1-(5-fluoropyridin-2-yl)-ethyl]-3H-imidazo[4,5-b]pyridin-5-amine]
3 nM | – | CC(C)Oc1cc(Nc2nc3c(cc2F)ncn3[C@@H](C)c2ccc(F)cn2)n[nH]1 [Example 4, 6-Fluoro-3-[(1S)-1-(5-fluoropyridin-2-yl)-ethyl]-N-(5-isopropoxy-1H-pyrazol-3-yl)-3H-imidazo[4,5-b]pyridin-5-amine]
21 nM | – | Cc1cc(Nc2nc3c(cc2F)ncn3[C@@H](C)c2ccc(F)cn2)n[nH]1 [Example 13, 6-Fluoro-3-[(1S)-1-(5-fluoropyridin-2-yl)ethyl]-N-(5-methyl-1H-pyrazol-3-yl)-3H-imidazo[4,5-b]pyridin-5-amine]
393 nM | – | Cc1cc(Nc2nc3c(cc2F)nc(C)n3Cc2ncc(F)cc2F)n[nH]1 [Example 18, 3-[(3,5-Difluoropyridin-2-yl)methyl]-6-fluoro-2-methyl-N-(5-methyl-1H-pyrazol-3-yl)-3H-imidazo[4,5-b]pyridin-5-amine]
3 nM | – | CC(C)Oc1cc(Nc2nc3c(cc2F)ncn3[C@@H](C)c2ncc(F)cn2)n[nH]1 [Example 6, 6-Fluoro-3-[(1S)-1-(5-fluoropyrimidin-2-yl)-ethyl]-N-(5-isopropoxy-1H-pyrazol-3-yl)-3H-imidazo[4,5-b]pyridin-5-amine]
3300 nM | – | Cc1cc(Nc2nc3c(cc2F)[nH]c(=O)n3[C@@H](C)c2ncc(F)cn2)n[nH]1 [Example 14, 6-Fluoro-3-[(1S)-1-(5-fluoropyrimidin-2-yl)ethyl]-5-[(5-methyl-1H-pyrazol-3-yl)amino]-1,3-dihydro-2H-imidazo[4,5-b]pyridin-2-one]
66 nM | – | Cc1cc(Nc2nc3c(cc2F)ncn3[C@@H](C)c2ncc(F)cn2)n[nH]1 [Example 12, 6-Fluoro-3-[(1S)-1-(5-fluoropyrimidin-2-yl)ethyl]-N-(5-methy 1-1H-pyrazol-3-yl)-3H-imidazo[4,5-b]pyridin-5-amine]
3 nM | – | C[C@@H](c1ncc(F)cn1)n1cnc2cc(F)c(Nc3cc(C4CC4)[nH]n3)nc21 [Example 5, N-(5-Cyclopropyl-1H-pyrazol-3-yl)-6-fluoro-3-[(1S)-1-(5-fluoropyrimidin-2-yl)-ethyl]-3H-imidazo[4,5-b]pyridin-5-amine]
23 nM | – | C[C@@H](c1ccc(F)cn1)n1cnc2ccc(Nc3cc(C4CC4)[nH]n3)nc21 [Example 2, N-(5-Cyclopropyl-1H-pyrazol-3-yl)-3-[(1S)-1-(5-fluoropyridin-2-yl)ethyl]-3H-imidazo[4,5-b]pyridin-5-amine]
3 nM | – | C[C@@H](c1ccc(F)cn1)n1cnc2cc(F)c(Nc3cc(C4CC4)[nH]n3)nc21 [Example 1, N-(5-Cyclopropyl-1H-pyrazol-3-yl)-6-fluoro-3-[(1S)-1-(5-fluoropyridin-2-yl)-ethyl]-3H-imidazo[4,5-b]-pyridin-5-amine]
3 nM | – | COc1cc(Nc2nc3c(cc2F)ncn3[C@@H](C)c2ccc(F)cn2)n[nH]1 [Example 11, 6-Fluoro-3-[(1S)-1-(5-fluoropyridin-2-yl)-ethyl]-N-(5-methoxy-1H-pyrazol-3-yl)-3H-imidazol-[4,5-b]pyridin-5-amine]
3 nM | – | COc1cc(Nc2nc3c(cc2F)ncn3[C@@H](CO)c2ccc(F)cn2)n[nH]1 [Example 9, (2R)-2-{6-Fluoro-5-[(5-methoxy-1H-pyrazol-3-yl)-amino]-3H-imidazo[4,5-b]pyridin-3-yl}-2-(5-fluoropyridin-2-yl)-ethanol]
73 nM | – | Cc1cc(Nc2nc3c(cc2F)ncn3[C@@H](CO)c2ccc(F)cn2)n[nH]1 [Example 16, (2R)-2-{6-Fluoro-5-[(5-methyl-1H-pyrazol-3-yl)amino]-3H-imidazo[4,5-b]pyridin-3-yl}-2-(5-fluoropyridin-2-yl)ethanol]
3 nM | – | CC(C)Oc1cc(Nc2nc3c(cc2F)ncn3[C@@H](CO)c2ccc(F)cn2)n[nH]1 [Example 8, (2R)-2-{6-Fluoro-5-[(5-isopropoxy-1H-pyrazol-3-yl)-amino]-3H-imidazo[4,5-b]pyridine-3-yl}-2-(5-fluoropyridin-2-yl)-ethanol]
283 nM | – | Cc1cc(Nc2nc3c(cc2F)ncn3Cc2ncc(F)cc2F)n[nH]1 [Example 17, 3-[(3,5-Difluoropyridin-2-yl)methyl]-6-fluoro-N-(5-methyl-1H-pyrazol-3-yl)-3H-imidazo[4,5-b]pyridin-5-amine]
9350 nM | – | Cc1cc(Nc2nc3c(cc2F)nc(C)n3[C@@H](C)c2ncc(F)cn2)n[nH]1 [Example 15, 6-Fluoro-3-[(1S)-1-(5-fluoropyrimidin-2-yl)ethyl]-2-methyl-N-(5-methyl-1H-pyrazol-3-yl)-3H-imidazo[4,5-b]pyridin-5-amine]
3 nM | – | CCOc1cc(Nc2nc3c(cc2F)ncn3[C@@H](CO)c2ccc(F)cn2)n[nH]1 [Example 10, (2R)-2-{5-[(5-Ethoxy-1H-pyrazol-3-yl)-amino]-6-fluoro-3H-imidazo[4,5-b]pyridin-3-yl}-2-(5-fluoropyridin-2-yl)-ethanol]
3 nM | – | COc1cc(Nc2nc3c(cc2F)ncn3[C@@H](C)c2ncc(F)cn2)n[nH]1 [Example 7, 6-Fluoro-3-[(1S)-1-(5-fluoropyrimidin-2-yl)-ethyl]-N-(5-methoxy-1H-pyrazol-3-yl)-3H-imidazo[4,5-b]pyridin-5-amine]
